“And” between values parts separate entries of the source, which are not always exact repeats. Identical values can stand only once. Like-named read-outs stand apart in the source and are kept apart here.
Tests used:
DPP IV = DPP IV (Homo sapiens, UniProt P27487); assay: In vitro DPP IV enzyme inhibition assay; inhibitors incubated at pH 2 or pH 8, then added to enzyme assay solution at pH 8.0; assay type: biochemical
Protocol: Inhibitors were incubated overnight in pH 2 or pH 8 solutions and then added directly to an enzyme assay solution at pH 8.0.
It is important to note that the x-axis in FIG. 3 refers to the concentration of the SPI, not the concentration of the released Xaa-boroPro.

male Sprague-Dawley rats = assay: Example 10: clinical signs and mortality after single oral administration in male rats; details: for Clinical Observation: one line per animal, wrapped cell 'Redness of ears' continues 'and paws';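 for all read-outs here: test articles given by mouth, formulated in deionized Type I water as vehicle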
serum DPP IV [1] = molecular target: serum DPP IV (Mus musculus, UniProt P28843); assay: In vivo inhibition of serum DPP IV in db/db mice after oral dose; details: mouse, iv, Diabetic-control = 100.00; for activity at 0.0025 mg/kg: read-out: In vivo inhibition of serum DPP IV, 0.0025 mg/kg; for activity at 0.01 mg/kg: read-out: In vivo inhibition of serum DPP IV, 0.01 mg/kg; for activity at 0.025 mg/kg: read-out: In vivo inhibition of serum DPP IV, 0.025 mg/kg
Sequence of serum DPP IV (P28843 37-760 limits assumed): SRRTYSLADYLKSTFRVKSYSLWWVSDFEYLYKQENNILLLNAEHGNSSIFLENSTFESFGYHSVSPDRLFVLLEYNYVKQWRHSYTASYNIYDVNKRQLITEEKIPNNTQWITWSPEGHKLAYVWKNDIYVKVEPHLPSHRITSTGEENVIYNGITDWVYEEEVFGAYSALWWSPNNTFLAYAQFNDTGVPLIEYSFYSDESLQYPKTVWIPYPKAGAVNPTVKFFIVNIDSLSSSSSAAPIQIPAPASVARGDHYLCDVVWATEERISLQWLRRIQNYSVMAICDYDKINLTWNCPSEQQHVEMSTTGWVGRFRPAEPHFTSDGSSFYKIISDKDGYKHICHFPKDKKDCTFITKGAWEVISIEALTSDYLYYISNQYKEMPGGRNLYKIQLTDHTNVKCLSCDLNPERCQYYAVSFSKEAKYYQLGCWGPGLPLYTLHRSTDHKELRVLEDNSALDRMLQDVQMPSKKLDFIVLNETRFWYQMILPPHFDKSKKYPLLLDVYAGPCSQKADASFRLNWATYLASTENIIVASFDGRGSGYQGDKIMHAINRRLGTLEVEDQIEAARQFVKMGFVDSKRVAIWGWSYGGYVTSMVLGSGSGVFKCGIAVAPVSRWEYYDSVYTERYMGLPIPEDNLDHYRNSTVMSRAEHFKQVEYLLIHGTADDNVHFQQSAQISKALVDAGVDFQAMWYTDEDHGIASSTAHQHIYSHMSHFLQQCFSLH

Serum DPP IV [2] = molecular target: T1, Serum DPP IV (Rattus norvegicus, UniProt P14740); assay: Serum DPP IV activity in rats as a function of time after dosing; assay type: in vivo; details: rats, single oral dose of 0.025 mg/kg, average of four rats (FIG. 8)
T1 construct: Serum DPP IV activity in rats as a function of time; from tissue; host or cells: rat serum
T1 sequence (P14740 37-767 limits assumed): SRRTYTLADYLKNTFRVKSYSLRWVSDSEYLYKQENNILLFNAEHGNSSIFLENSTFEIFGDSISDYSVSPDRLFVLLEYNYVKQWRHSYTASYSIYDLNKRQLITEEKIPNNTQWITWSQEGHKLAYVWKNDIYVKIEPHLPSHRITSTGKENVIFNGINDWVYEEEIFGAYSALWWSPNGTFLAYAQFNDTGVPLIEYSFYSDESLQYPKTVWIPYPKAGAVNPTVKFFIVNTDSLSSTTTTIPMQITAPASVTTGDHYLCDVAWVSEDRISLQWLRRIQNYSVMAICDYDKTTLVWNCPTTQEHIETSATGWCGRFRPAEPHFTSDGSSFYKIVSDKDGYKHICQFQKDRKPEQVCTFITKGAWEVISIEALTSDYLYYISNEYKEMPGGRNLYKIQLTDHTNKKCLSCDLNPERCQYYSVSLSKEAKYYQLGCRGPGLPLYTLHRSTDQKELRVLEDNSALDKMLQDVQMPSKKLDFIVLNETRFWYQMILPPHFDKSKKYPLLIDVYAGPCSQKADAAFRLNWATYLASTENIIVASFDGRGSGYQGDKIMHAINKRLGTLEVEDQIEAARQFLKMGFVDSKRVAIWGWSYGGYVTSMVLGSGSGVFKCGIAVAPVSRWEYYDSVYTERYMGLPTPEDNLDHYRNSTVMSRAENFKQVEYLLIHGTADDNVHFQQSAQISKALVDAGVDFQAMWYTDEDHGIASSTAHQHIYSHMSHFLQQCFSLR
Protocol: FIG. 8 Serum DPP IV activity in rats as a function of time following a single oral dose of 0.025 mg/kg. Each bar represents the average of four rats.
Each bar represents the average of four rats.

[3] = pH 2, ten minutes, read-out: IC50 Values at Ten Minutes pH 2
[4] = pH 8, ten minutes, read-out: IC50 Values at Ten Minutes pH 8
[5] = pH 2, read-out: Tetrapeptide Prodrugs (IC50) pH 2
[6] = pH 8, read-out: Tetrapeptide Prodrugs (IC50) pH 8
[7] = 0.5 mg/kg ALA-PRO boronic dose equivalents
[8] = 2.5 mg/kg ALA-PRO boronic dose equivalents
[9] = 10.0 mg/kg ALA-PRO boronic dose equivalents

Sequence of DPP IV (P27487 whole entry, species assumed): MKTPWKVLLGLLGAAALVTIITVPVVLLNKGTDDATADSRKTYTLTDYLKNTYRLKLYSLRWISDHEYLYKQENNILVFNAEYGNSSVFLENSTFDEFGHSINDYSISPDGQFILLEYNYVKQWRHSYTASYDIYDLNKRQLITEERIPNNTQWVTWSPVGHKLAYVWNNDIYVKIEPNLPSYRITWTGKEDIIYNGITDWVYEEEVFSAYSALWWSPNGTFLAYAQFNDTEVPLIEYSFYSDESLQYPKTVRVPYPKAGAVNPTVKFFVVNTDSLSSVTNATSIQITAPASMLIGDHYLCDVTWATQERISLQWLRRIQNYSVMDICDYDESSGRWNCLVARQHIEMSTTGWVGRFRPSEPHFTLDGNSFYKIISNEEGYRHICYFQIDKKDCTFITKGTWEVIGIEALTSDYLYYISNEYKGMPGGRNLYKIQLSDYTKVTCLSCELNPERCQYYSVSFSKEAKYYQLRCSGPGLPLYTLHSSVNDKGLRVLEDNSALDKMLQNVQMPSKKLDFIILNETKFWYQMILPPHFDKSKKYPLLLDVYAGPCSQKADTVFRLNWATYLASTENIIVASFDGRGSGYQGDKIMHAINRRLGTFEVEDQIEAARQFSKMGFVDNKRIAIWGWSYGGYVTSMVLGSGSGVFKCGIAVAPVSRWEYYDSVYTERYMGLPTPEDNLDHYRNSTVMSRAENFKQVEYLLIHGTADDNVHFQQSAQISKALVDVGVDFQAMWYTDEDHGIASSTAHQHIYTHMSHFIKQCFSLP

Row | Structure (SMILES) | IC50 (DPP IV; [3]) [nM] | IC50 (DPP IV; [4]) [nM] | other results
1 | CC(NC(=O)C1CCCN1C(=O)C(N)Cc1ccccc1)C(=O)N1CCCC1B(O)O (stereo not drawn) [PheProAlaboroPro, Phenylalanine-Proline-Alanine-Proline Boronic Acid] | 6 | 8 | –
2 | CC[C@H](NC(=O)[C@@H]1CSCN1C(=O)[C@@H](N)C1CCCCC1)C(=O)N1CCC[C@H]1B(O)O [ChgThz4EtgboroPro] | 13 | 16 | –
3 | CC(N)C(=O)N1CCCC1C(=O)N1CCCC1C(=O)N1CCCC1B(O)O (stereo not drawn) [AlaProProboroPro] | 8300 | – | –
4 | CCC(NC(=O)C1CCCN1C(=O)C(N)C1CCCCC1)C(=O)N1CCCC1B(O)O (stereo not drawn) [ChgProEtgboroPro] | 12 | 14 | –
5 | CC(N)C(=O)NC(C)C(=O)N1CCCC1C(=O)N1CCCC1B(O)O (stereo not drawn) [AlaAlaProboroPro] | 3000 | – | –
6 | CC(NC(=O)C(C)(C)N)C(=O)NC(C(=O)N1CCCC1B(O)O)C(C)C (stereo not drawn) [AibAlaValboroPro] | 2000 | – | –
7 | CC(NC(=O)C(NC(=O)C1CCCN1C(=O)C(N)C1CCCCC1)C1CCCCC1)B(O)O (stereo not drawn) [ChgProChgboroAla] | 180 | 170 | IC50 (DPP IV; [5]): 180 nM; IC50 (DPP IV; [6]): 170 nM
8 | CCC(NC(=O)C1CC(O)CN1C(=O)C(N)C1CCCCC1)C(=O)N1CCCC1B(O)O (stereo not drawn) [ChgHypEtgboroPro] | 17 | 25 | –
9 | CNC(Cc1ccccc1)C(=O)N1CCCC1C(=O)NC(C)C(=O)N1CCCC1B(O)O (stereo not drawn) [N—Me-PheProAlaboroPro, N-Me-Phe-PRO-ALA-PRO Boronic Acid] | 2000 | 2700 | Clinical Observation (male Sprague-Dawley rats; [7]): None; Approximate Onset of Observation (Time post-dose) (male Sprague-Dawley rats; [8]): ~2 h; Clinical Observation (male Sprague-Dawley rats; [8]): Redness of ears and None (2×); Approximate Onset of Observation (Time post-dose) (male Sprague-Dawley rats; [9]): ~4 h; Clinical Observation (male Sprague-Dawley rats; [9]): None (2×) and Redness of ears
10 | CCC(NC(=O)C(C)NC(=O)C(N)C1CCCCC1)C(=O)NC(C)B(O)O (stereo not drawn) [ChgAlaEtgboroAla] | 1300 | 2500 | –
11 | CC(NC(=O)C1CCCN1C(=O)C(N)C1CCCCC1)C(=O)N1CCCC1B(O)O (stereo not drawn) [ChgProAlaboroPro, Cyclohexylglycine-Proline-Ala-boroProline] | 17 | 17 | IC50 (DPP IV; [5]): 19 nM; IC50 (DPP IV; [6]): 15 nM; activity at 0.0025 mg/kg (serum DPP IV [1]; 1 hr Post Rx-Glucose): 110%; activity at 0.0025 mg/kg (serum DPP IV [1]; 4 hrs Post Rx-Glucose): 99.5%; activity at 0.01 mg/kg (serum DPP IV [1]; 1 hr Post Rx-Glucose): 100%; activity at 0.01 mg/kg (serum DPP IV [1]; 4 hrs Post Rx-Glucose): 77.5%; activity at 0.025 mg/kg (serum DPP IV [1]; 1 hr Post Rx-Glucose): 111%; activity at 0.025 mg/kg (serum DPP IV [1]; 4 hrs Post Rx-Glucose): 58.9%; Clinical Observation (male Sprague-Dawley rats; [7]): None; Clinical Observation (male Sprague-Dawley rats; [8]): None; Approximate Time of Sacrifice or Time Animal was Found Dead (hr post-dose) (male Sprague-Dawley rats; [9]): ~5 h (sacrificed); Clinical Observation (male Sprague-Dawley rats; 10.0 mg/kg ALA-PRO boronic dose equivalents, listed as L-2-Chg-PRO-ALA-PRO boronic acid): Redness of ears and Decreased activity and labored breathing and None (2×); Inhibition of serum DPP IV activity compared with Val-boroPro (Serum DPP IV [2]): much less orally active
12 | O=C(C1CCCN1)N1CCCC1B(O)O (stereo not drawn) [Pro-boroPro, reference compound] | – | – | pH dependence of DPP IV inhibition (DPP IV; pre-incubated at low pH vs high pH (FIG. 3, FIG. 64, Table 1)): more effective as inhibitors of DPP IV when pre-incubated at low pH than at high pH
13 | CC(C)(C)[C@H](NC(=O)[C@@H]1CCCN1C(=O)[C@@H](N)C1CCCCC1)C(=O)N1CCC[C@H]1B(O)O [ChgProBugboroPro] | 1500 | 8000 | –
14 | CC(NC(=O)C(N)C1CCCCC1)C(=O)NC(C(=O)N1CCCC1B(O)O)C(C)C (stereo not drawn) [ChgAlaValboroPro] | 190 | 360 | IC50 (DPP IV; [5]): 190 nM; IC50 (DPP IV; [6]): 360 nM
15 | CC(NC(=O)C(NC(=O)C1CCCN1C(=O)C(N)C1CCCCC1)C(C)(C)C)B(O)O (stereo not drawn) [ChgProtBugboroAla] | 6800 | 8400 | –
